Reference: the supplement of paper PMC4862054

Assays:
Settings in all cases: incubation time: 72 h
MDA-MB-468 [1] = assay: drug sensitivity score (DSS), CellTox Green (DSS (AUC-based score)); higher = stronger drug effect (viability inhibition or cytotoxicity); extreme values may be limits of the assay
Procedure, shortened: (§1)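 The drug sensitivity score was computed from the area under the fitted dose-response curve. Breast cancer cell lines in 20 µl suspension went into 384-well plates holding compound at 5 concentrations (10-fold steps over a 10,000-fold, compound-specific range) for 72 h of incubation. CellTox Green fluorescence (485/520 nm) was read before CellTiter-Glo luminescence, the latter after 10 min at room temperature, and each plate was normalised to 0.1 % DMSO and a positive kill control.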

HCC1937 [2] = assay: as above
Procedure, shortened: as §1

MDA-MB-231 [3] = assay: as above
Procedure, shortened: as §1

MDA-MB-436 [4] = assay: as above
Procedure, shortened: as §1

HCC1599 [5] = assay: as above
Procedure, shortened: as §1

CAL-85-1 [6] = assay: as above
Procedure, shortened: as §1

MFM-223 = assay: as above
Procedure, shortened: as §1

MCF-10A = assay: as above
Procedure, shortened: as §1

MDA-MB-468 [7] = assay: normalised viability (% of control), CellTiter-Blue; higher = more viable cells (about 100 = DMSO control)
Procedure, shortened: (§2)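 Each entry is normalised viability at a single listed concentration within a series. It comes from breast cancer cell lines incubated 72 h with compound in 384-well plates, then measured with CellTiter-Blue fluorescence at 560/590 nm. Every plate was normalised between vehicle (100) and a positive kill control (0).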

HCC1143 = assay: as above
Procedure, shortened: as §2

HCC1937 [8] = assay: as above
Procedure, shortened: as §2

MDA-MB-231 [9] = assay: as above
Procedure, shortened: as §2

CAL-148 = assay: as above
Procedure, shortened: as §2

HDQ-P1 = assay: as above
Procedure, shortened: as §2

MDA-MB-436 [10] = assay: as above
Procedure, shortened: as §2

HCC1599 [11] = assay: as above
Procedure, shortened: as §2

CAL-120 = assay: as above
Procedure, shortened: as §2

Hs578T = assay: as above
Procedure, shortened: as §2

SK-BR-3 = assay: as above
Procedure, shortened: as §2

CAL-85-1 [12] = assay: as above
Procedure, shortened: as §2

DU-4475 = assay: as above
Procedure, shortened: as §2

MDA-MB-453 = assay: as above
Procedure, shortened: as §2

## CCn1c(-c2nonc2N)nc2cnc(Oc3cccc(NC(=O)c4ccc(OCCN5CCOCC5)cc4)c3)cc21
MDA-MB-468 [1]
  drug sensitivity score: 0.303
HCC1937 [2]
  drug sensitivity score: 0
MDA-MB-231 [3]
  drug sensitivity score: 4.85
MDA-MB-436 [4]
  drug sensitivity score: 0
HCC1599 [5]
  drug sensitivity score: 0
CAL-85-1 [6]
  drug sensitivity score: 0
MFM-223
  drug sensitivity score: 0
MCF-10A
  drug sensitivity score: 0

## CN(C)CCOc1ccc(/C(=C(/CCCl)c2ccccc2)c2ccccc2)cc1 [Toremifene]
MDA-MB-468 [1]
  drug sensitivity score: 4.22
HCC1937 [2]
  drug sensitivity score: 5.17
MDA-MB-436 [4]
  drug sensitivity score: 0
HCC1599 [5]
  drug sensitivity score: 0
CAL-85-1 [6]
  drug sensitivity score: 0
MFM-223
  drug sensitivity score: 0
MCF-10A
  drug sensitivity score: 0
MDA-MB-468 [7]; 10 nM
  normalised viability: 104%
MDA-MB-468 [7]; 1000 nM
  normalised viability: 109%
MDA-MB-468 [7]; 10000 nM
  normalised viability: 17.9%
HCC1143; 10 nM
  normalised viability: 92.5%
HCC1143; 1000 nM
  normalised viability: 97.3%
HCC1143; 10000 nM
  normalised viability: 102%
HCC1937 [8]; 10 nM
  normalised viability: 129%
HCC1937 [8]; 1000 nM
  normalised viability: 93.1%
HCC1937 [8]; 10000 nM
  normalised viability: 114%
MDA-MB-231 [9]; 10 nM
  normalised viability: 95.8%
MDA-MB-231 [9]; 1000 nM
  normalised viability: 101%
MDA-MB-231 [9]; 10000 nM
  normalised viability: 108%
CAL-148; 3 nM
  normalised viability: 94%
CAL-148; 30 nM
  normalised viability: 97.6%
CAL-148; 100 nM
  normalised viability: 108%
HDQ-P1; 3 nM
  normalised viability: 108%
HDQ-P1; 30 nM
  normalised viability: 109%
HDQ-P1; 100 nM
  normalised viability: 113%
MDA-MB-436 [10]; 10 nM
  normalised viability: 99%
MDA-MB-436 [10]; 1000 nM
  normalised viability: 96.3%
MDA-MB-436 [10]; 10000 nM
  normalised viability: 71.1%
HCC1599 [11]; 10 nM
  normalised viability: 127%
HCC1599 [11]; 1000 nM
  normalised viability: 97.5%
HCC1599 [11]; 10000 nM
  normalised viability: 89.6%
CAL-120; 10 nM
  normalised viability: 85.2%
CAL-120; 1000 nM
  normalised viability: 96.1%
CAL-120; 10000 nM
  normalised viability: 79.1%
Hs578T; 10 nM
  normalised viability: 122%
Hs578T; 1000 nM
  normalised viability: 109%
Hs578T; 10000 nM
  normalised viability: 94.6%
SK-BR-3; 10 nM
  normalised viability: 113%
SK-BR-3; 1000 nM
  normalised viability: 107%
SK-BR-3; 10000 nM
  normalised viability: 91.4%
CAL-85-1 [12]; 3 nM
  normalised viability: 99.2%
CAL-85-1 [12]; 30 nM
  normalised viability: 92.9%
CAL-85-1 [12]; 100 nM
  normalised viability: 95.8%
DU-4475; 3 nM
  normalised viability: 110%
DU-4475; 30 nM
  normalised viability: 98.6%
DU-4475; 100 nM
  normalised viability: 99.4%
MDA-MB-453; 3 nM
  normalised viability: 126%
MDA-MB-453; 30 nM
  normalised viability: 91.4%
MDA-MB-453; 100 nM
  normalised viability: 112%

## Cc1cc(Nc2cc(CN3CCOCC3)c3nc(C)c(Cc4ccc(Cl)cc4F)n3n2)n[nH]1
MDA-MB-468 [7]; 10 nM
  normalised viability: 103%
MDA-MB-468 [7]; 1000 nM
  normalised viability: 61.4%
MDA-MB-468 [7]; 10000 nM
  normalised viability: 7.11%
HCC1143; 10 nM
  normalised viability: 78.1%
HCC1143; 1000 nM
  normalised viability: 58.9%
HCC1143; 10000 nM
  normalised viability: 35.5%
HCC1937 [8]; 10 nM
  normalised viability: 80.4%
HCC1937 [8]; 1000 nM
  normalised viability: 64.7%
HCC1937 [8]; 10000 nM
  normalised viability: 44%
MDA-MB-231 [9]; 10 nM
  normalised viability: 102%
MDA-MB-231 [9]; 1000 nM
  normalised viability: 83.6%
MDA-MB-231 [9]; 10000 nM
  normalised viability: 18.7%
CAL-148; 3 nM
  normalised viability: 84.1%
CAL-148; 30 nM
  normalised viability: 87.7%
CAL-148; 100 nM
  normalised viability: 88.2%
HDQ-P1; 3 nM
  normalised viability: 89.9%
HDQ-P1; 30 nM
  normalised viability: 82%
HDQ-P1; 100 nM
  normalised viability: 82.4%
MDA-MB-436 [10]; 10 nM
  normalised viability: 109%
MDA-MB-436 [10]; 1000 nM
  normalised viability: 71.1%
MDA-MB-436 [10]; 10000 nM
  normalised viability: 36.8%
HCC1599 [11]; 10 nM
  normalised viability: 109%
HCC1599 [11]; 1000 nM
  normalised viability: 90.5%
HCC1599 [11]; 10000 nM
  normalised viability: 92%
CAL-120; 10 nM
  normalised viability: 83.7%
CAL-120; 1000 nM
  normalised viability: 57.6%
CAL-120; 10000 nM
  normalised viability: 14.8%
Hs578T; 10 nM
  normalised viability: 110%
Hs578T; 1000 nM
  normalised viability: 81.6%
Hs578T; 10000 nM
  normalised viability: 2.66%
SK-BR-3; 10 nM
  normalised viability: 102%
SK-BR-3; 1000 nM
  normalised viability: 70.9%
SK-BR-3; 10000 nM
  normalised viability: 30.5%
CAL-85-1 [12]; 3 nM
  normalised viability: 87.2%
CAL-85-1 [12]; 30 nM
  normalised viability: 83.3%
CAL-85-1 [12]; 100 nM
  normalised viability: 93.1%
DU-4475; 3 nM
  normalised viability: 110%
DU-4475; 30 nM
  normalised viability: 94.7%
DU-4475; 100 nM
  normalised viability: 122%
MDA-MB-453; 3 nM
  normalised viability: 90.4%
MDA-MB-453; 30 nM
  normalised viability: 101%
MDA-MB-453; 100 nM
  normalised viability: 82.8%
